Source: US8455534B2, “Estrogen receptor modulators and uses thereof” (Aragon Pharmaceuticals, Inc., priority 2010, dated 2013)

What was measured:
MCF-7 cells = experiment: Breast Cancer Cell Viability Assay (MCF-7, CellTiter-Glo); type: cell-based; details: 5 days' compound exposure; for IC50: Homo sapiens, MCF7, 120 h
Description: MCF-7 cells were adjusted to a concentration of 20,000 cells per mL in RPMI containing 10% FBS and 20 mM HEPES. 16 microliters of the cell suspension (320 cells) was added to each well of a 384 well plate, and the cells were incubated overnight to allow the cells to adhere. The following day an eleven point, serial semilog dilution of each compound was added to the cells in 16 μL at a final concentration ranging from 0.3-0.000003 μM. After 5 days' compound exposure, 16 μL of CellTiter-GLo (Promega, Madison Wis.) was added to the cells the relative luminescence units (RLUs) of each well was determined CellTiter-Glo added to 32 μL of medium without cells was used to obtain a background value. The Percent viability of each sample was determined as follows: (RLU sample-RLU background/RLU untreated cells-RLU background)×100=% viability.

ER-α = target: T1, ER-α (Homo sapiens, UniProt P03372); experiment: Breast Cancer Cell ER-α In Cell Western Assay (SP1); type: cell-based; details: MCF-7 cells, SP1 antibody, 4 or 24 hr post compound addition; for Emax: MCF7, read-out: ER-α In Cell Western Assay (SP1) Max Response; for DC50: read-out: ER-α In Cell Western Assay (SP1) IC50
T1 sequence (P03372 1-595): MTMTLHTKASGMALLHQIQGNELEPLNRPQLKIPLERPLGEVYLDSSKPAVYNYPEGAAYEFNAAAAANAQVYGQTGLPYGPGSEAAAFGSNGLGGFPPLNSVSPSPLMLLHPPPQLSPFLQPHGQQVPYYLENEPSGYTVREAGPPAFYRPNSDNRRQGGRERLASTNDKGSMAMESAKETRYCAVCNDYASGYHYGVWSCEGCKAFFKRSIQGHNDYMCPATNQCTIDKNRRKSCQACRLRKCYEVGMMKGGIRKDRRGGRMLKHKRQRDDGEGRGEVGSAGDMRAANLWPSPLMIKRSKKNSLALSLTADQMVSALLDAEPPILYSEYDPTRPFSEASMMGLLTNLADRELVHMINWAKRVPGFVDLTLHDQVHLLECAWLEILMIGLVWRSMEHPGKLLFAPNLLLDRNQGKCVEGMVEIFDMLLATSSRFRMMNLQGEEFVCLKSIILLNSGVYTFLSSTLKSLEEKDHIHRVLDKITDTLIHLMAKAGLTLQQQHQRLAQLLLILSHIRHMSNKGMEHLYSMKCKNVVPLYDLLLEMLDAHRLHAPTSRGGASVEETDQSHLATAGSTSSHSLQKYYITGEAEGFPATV
Description: MCF-7 cells were adjusted to a concentration of 200,000 cells per mL in RPMI containing 10% charcoal-stripped FBS and 20 mM HEPES. 16 microliters of the cell suspension (3200 cells) was added to each well of a poly-D-lysine 384 well plate, and the cells were incubated overnight to allow the cells to adhere. The following day an eleven point, serial semilog dilution of each compound was added to the cells in 16 μL at a final concentration ranging from 0.3-0.000003 μM. At 4 or 24 hr post compound addition, the cells were fixed (10% formalin in PBS) for 20 minutes. Cells were permeablized in PBS 0.1% Triton and blocked with LICOR blocking buffer (50 μL1/well, 90′). The wells were then incubated overnight at 4° C. with SP1 rabbit monoclonal Ab (Thermo Scientific) diluted 1:1000 in LICOR blocking buffer/0.1% Tween-20. Wells which were treated with blocking buffer with Tween but no antibody were used as a background control. Wells were washed with 0.1% Tween-20/PBS and then incubated in goat anti-rabbit IRDye™ 800CW (LICOR Inc.; 1:1000) and DRAQ5 DNA dye (1:2000 for 2 mM stock) diluted in LICOR blocking buffer containing 0.1% Tween-20 and 0.01% SDS for 60 minutes. Cells were washed (50 μl/well, 5′ each) in 0.1% Tween-20/PBS. Plates were scanned on a LICOR Odyssey infrared imaging system. Integrated intensities in the 800 nm channel and 700 nm channel were measured to determine levels of ER and DNA respectively. Percent ER levels were determined as follows: (Integrated intensity 800 nm sample/integrated intensity 700 nm sample)/(Integrated intensity 800 nm untreated cells/integrated intensity 700 nm untreated cells)×100=% ER levels.

Compound | IC50 (MCF-7 cells) | Emax (ER-α) | DC50 (ER-α) | MCF7 Viability Assay Max Response (MCF-7 cells)
CC/C(=C(/c1ccc(/C=C/C(=O)O)cc1)c1ccc2[nH]ncc2c1)c1ccccc1 [Compound 2, (E)-3-(4-((E)-1-(1H-Indazol-5-yl)-2-phenylbut-1-en-1-yl)phenyl)acrylic acid] | ≤ 0.1 µM | ≥ 40% |  | ++ (++ = a single % value ≧ 40%)
CC/C(=C(/c1ccc(/C=C/C(=O)O)cc1)c1ccc2[nH]ncc2c1)c1ccc(Cl)cc1 [Compound 4, (E)-3-(4-((E)-2-(4-Chlorophenyl)-1-(1H-indazol-5-yl)but-1-en-1-yl)phenyl)acrylic acid] | ≤ 0.1 µM | ≥ 40% |  | ++ (++ = a single % value ≧ 40%)
CC/C(=C(/c1ccc(/C=C/C(=O)O)cc1)c1ccc2[nH]ncc2c1)c1ccccc1CO [Compound 8, (E)-3-(4-((E)-2-(2-(Hydroxymethyl)phenyl)-1-(1H-indazol-5-yl)but-1-en-1-yl)phenyl)acrylic acid] | > 0.1 µM | ≥ 40% | ≤ 0.1 µM | ++ (++ = a single % value ≧ 40%)
CC/C(=C(/c1ccc(/C=C/C(=O)O)cc1)c1ccc2[nH]ncc2c1)c1ccccc1OC [Compound 12, (E)-3-(4-((E)-1-(1H-Indazol-5-yl)-2-(2-methoxyphenyl)but-1-en-1-yl)phenyl)acrylic acid] | ≤ 0.1 µM | ≥ 40% |  | ++ (++ = a single % value ≧ 40%)
CC/C(=C(/c1ccc(/C=C/C(=O)O)cc1)c1ccc2[nH]ncc2c1)c1ccccc1Cl [Compound 14, (E)-3-(4-((E)-2-(2-chlorophenyl)-1-(1H-indazol-5-yl)but-1-en-1-yl)phenyl)acrylic acid] | ≤ 0.1 µM | ≥ 40% |  | ++ (++ = a single % value ≧ 40%)
CC/C(=C(/c1ccc(/C=C/C(=O)O)cc1)c1ccc2[nH]ncc2c1)c1ccccc1F [Compound 16, (E)-3-(4-((E)-2-(2-Fluorophenyl)-1-(1H-indazol-5-yl)but-1-en-1-yl)phenyl)acrylic acid] | ≤ 0.1 µM | ≥ 40% | ≤ 0.1 µM | ++ (++ = a single % value ≧ 40%)
CCOC(=O)/C=C/c1ccc(/C(=C(/CC)c2ccccc2OC)c2ccc3[nH]ncc3c2)cc1 [Compound 91, (E)-ethyl 3-(4-((E)-1-(1H-indazol-5-yl)-2-(2-methoxyphenyl)but-1-en-1-yl)phenyl)acrylate] | ≤ 0.1 µM |  |  | + (+ = a single % value < 40%)
[2H]C([2H])([2H])C([2H])([2H])/C(=C(/c1ccc(/C=C/C(=O)O)cc1)c1ccc2[nH]ncc2c1)c1ccc(F)cc1Cl [Compound 136, (E)-3-(4-((E)-2-(2-Chloro-4-fluorophenyl)-3,3,4,4,4-pentadeutero-1-(1H-indazol-5-yl)but-1-en-1-yl)phenyl)acrylic acid] | ≤ 0.1 µM |  |  | ++ (++ = a single % value ≧ 40%)

The next lines start with results.

IC50 (MCF-7 cells) | Emax (ER-α) | DC50 (ER-α) | Compound | MCF7 Viability Assay Max Response (MCF-7 cells)
≤ 0.1 µM | ≥ 40% | ≤ 0.1 µM | CCOC(=O)/C=C/c1ccc(/C(=C(/CC)c2ccccc2)c2ccc3[nH]ncc3c2)cc1 [Compound 1, (E)-Ethyl 3-(4-((E)-1-(1H-indazol-5-yl)-2-phenylbut-1-en-1-yl)phenyl)acrylate] | + (+ = a single % value < 40%)
≤ 0.1 µM | ≥ 40% | ≤ 0.1 µM | CC/C(=C(/c1ccc(/C=C/C(=O)O)cc1)c1ccc2[nH]ncc2c1)c1ccc(F)cc1 [Compound 3, (E)-3-(4-((E)-2-(4-Fluorophenyl)-1-(1H-indazol-5-yl)but-1-en-1-yl)phenyl)acrylic acid] | ++ (++ = a single % value ≧ 40%)
≤ 0.1 µM | ≥ 40% | ≤ 0.1 µM | CC/C(=C(/c1ccc(/C=C/C(=O)O)cc1)c1ccc2[nH]ncc2c1)c1cccc(OC)c1 [Compound 5, (E)-3-(4-((E)-1-(1H-indazol-5-yl)-2-(3-methoxyphenyl)but-1-en-1-yl)phenyl)acrylic acid] | ++ (++ = a single % value ≧ 40%)
> 0.1 µM | ≥ 40% | ≤ 0.1 µM | CC/C(=C(/c1ccc(/C=C/C(=O)O)cc1)c1ccc2[nH]ncc2c1)c1cccc(CO)c1 [Compound 6, (E)-3-(4-((E)-2-(3-(Hydroxymethyl)phenyl)-1-(1H-indazol-5-yl)but-1-en-1-yl)phenyl)acrylic acid] | ++ (++ = a single % value ≧ 40%)
≤ 0.1 µM | ≥ 40% | ≤ 0.1 µM | CC/C(=C(/c1ccc(/C=C/C(=O)O)cc1)c1ccc2[nH]ncc2c1)c1ccc(CO)cc1 [Compound 7, (E)-3-(4-((E)-2-(4-(Hydroxymethyl)phenyl)-1-(1H-indazol-5-yl)but-1-en-1-yl)phenyl)acrylic acid] | ++ (++ = a single % value ≧ 40%)
≤ 0.1 µM | ≥ 40% |  | CC/C(=C(/c1ccc(/C=C/C(=O)O)cc1)c1ccc2[nH]ncc2c1)c1ccccc1C [Compound 9, (E)-3-(4-((E)-1-(1H-Indazol-5-yl)-2-(o-tolyl)but-1-en-1-yl)phenyl)acrylic acid] | ++ (++ = a single % value ≧ 40%)
≤ 0.1 µM | ≥ 40% | ≤ 0.1 µM | CC/C(=C(/c1ccc(/C=C/C(=O)O)cc1)c1ccc2[nH]ncc2c1)c1cccc(C)c1 [Compound 10, (E)-3-(4-((E)-1-(1H-Indazol-5-yl)-2-(m-tolyl)but-1-en-1-yl)phenyl)acrylic acid] | ++ (++ = a single % value ≧ 40%)
≤ 0.1 µM | ≥ 40% | ≤ 0.1 µM | CC/C(=C(/c1ccc(/C=C/C(=O)O)cc1)c1ccc2[nH]ncc2c1)c1ccc(C)cc1 [Compound 11, (E)-3-(4-((E)-1-(1H-Indazol-5-yl)-2-(p-tolyl)but-1-en-1-yl)phenyl)acrylic acid] | ++ (++ = a single % value ≧ 40%)
≤ 0.1 µM | ≥ 40% | ≤ 0.1 µM | CC/C(=C(/c1ccc(/C=C/C(=O)O)cc1)c1ccc2[nH]ncc2c1)c1ccc(OC)cc1 [Compound 13, (E)-3-(4-((E)-1-(1H-Indazol-5-yl)-2-(4-methoxyphenyl)but-1-en-1-yl)phenyl)acrylic acid] | ++ (++ = a single % value ≧ 40%)
≤ 0.1 µM | ≥ 40% |  | CC/C(=C(/c1ccc(/C=C/C(=O)O)cc1)c1ccc2[nH]ncc2c1)c1cccc(Cl)c1 [Compound 15, (E)-3-(4-((E)-2-(3-Chlorophenyl)-1-(1H-indazol-5-yl)but-1-en-1-yl)phenyl)acrylic acid] | ++ (++ = a single % value ≧ 40%)
≤ 0.1 µM |  |  | CCOC(=O)/C=C/c1ccc(/C(=C(/CC)c2ccc(OC)cc2)c2ccc3[nH]ncc3c2)cc1 [Compound 92, (E)-Ethyl 3-(4-((E)-1-(1H-Indazol-5-yl)-2-(4-methoxyphenyl)but-1-en-1-yl)phenyl)acrylate] | + (+ = a single % value < 40%)
≤ 0.1 µM |  |  | CC/C(=C(/c1ccc(/C=C/C(=O)O)cc1)c1ccc2[nH]ncc2c1)c1ccc(F)cc1Cl [Compound 111, (E)-3-(4-((E)-2-(2-Chloro-4-fluorophenyl)-1-(1H-indazol-5-yl)but-1-en-1-yl)phenyl)acrylic acid] | ++ (++ = a single % value ≧ 40%)
